Patent US20200165194A1, “ADDITIVE COMPOSITION FOR CULTURE MEDIUM, ADDITIVE COMPOUND FOR CULTURE MEDIUM, AND METHOD FOR CULTURE OF CELLS OR TISSUE USING SAME” (NISSAN CHEMICAL CORPORATION, priority 2017, published 2020)
Where two headings read alike, the source gives them in different places.

What was measured:
[1] = tested on: Human umbilical vein endothelial cells; experiment: Vascular endothelial cell, 3D culture, ATP assay (Experimental Example 14); type: cell-based; conditions: for proliferation activity (in words): human umbilical vein endothelial cells under three-dimensional conditions; for viability at 5 µM / viability at 10 µM: Homo sapiens, HUVEC, 96 h, 4 days, no-addition = 100%, read-out: relative value of RLU (number of viable cells)
Procedure: Human umbilical vein endothelial cells (manufactured by PromoCell) were precultured in Endothelial Cell proliferation Medium (manufactured by PromoCell) medium (single layer culture). The above-mentioned cells in the logarithmic growth phase were washed with PBS, DetachKit (manufactured by PromoCell) was added, and adherent cells were detached by incubating at 37° C. for 3 min. The medium was added and the mixture was centrifuged and resuspended in the same medium.
The aforementioned cells were suspended in respective deacylated gellan gum-containing or not containing media (deacylated gellan gum concentration was 0.015 w/v %), and seeded in a 96 well low attachment U-bottom plate (manufactured by Corning, #4520, deacylated gellan gum-free medium), or a low attachment flat bottom plate (manufactured by Corning, #3474, deacylated gellan gum-containing medium) at a cell concentration of 700-2000 cells/90 μL/well (all 3D culture). […] The amount of each compound solution to be added was 10 μL/well. As a control, a DMSO solution dissolved in a medium was added (DMSO final concentration 0.1%).

[2] = tested on: Mouse embryonic fibroblast C3H10T1/2; experiment: Fibroblast strain C3H10T1/2, 3D culture, ATP assay (Experimental Example 11); type: cell-based; conditions: for proliferation activity (in words): fibroblast under three-dimensional conditions
Procedure: Mouse embryonic fibroblast C3H10T1/2 (manufactured by DS PHARMA BIO MEDICAL) was cultured in a BME medium (manufactured by Thermo Fisher Scientific) containing 10 (v/v) % FBS (manufactured by Corning) and the L-glutamine-penicillin-streptomycin stabilizing solution (manufactured by Sigma-Aldrich). The above-mentioned cells in the logarithmic growth phase were washed with PBS, a 0.25 w/v % trypsin-1 mmol/L EDTA (ethylenediaminetetraacetic acid) solution (manufactured by Wako Pure Chemical Industries, Ltd.) was added, and the cells were detached by incubating at 37° C. for 3 min. Each medium was added, the mixture was centrifuged, and the supernatant was removed.
The aforementioned various cells were suspended in respective deacylated gellan gum-containing or not containing media (deacylated gellan gum concentration was 0.015 w/v %), and seeded in a 96 well low attachment U-bottom plate (manufactured by Corning, #4520, deacylated gellan gum-free medium) at a cell concentration of 700-2000 cells/90 μL/well (3D culture). […] The amount of each compound solution to be added was 10 μL/well. As a control, a DMSO solution dissolved in a medium was added (DMSO final concentration 0.1%). […] When compared with the compound no-addition (control), one showing a value of not more than 119% as -, one showing a value of not less than 120% as ◯, and one showing a value of not less than 150% as ⊚ are shown in the eighteenth table. Unperformed test is left blank.

[3] = tested on: Bone marrow-derived human mesenchymal stem cells (BM-hMSC); experiment: Human mesenchymal stem cell-2: 3D, EZSPHERE and 2D culture, ATP assay (Experimental Example 10); type: cell-based; conditions: for viability at 1 µM / viability at 5 µM / viability at 10 µM / viability at 20 µM: Homo sapiens, Mesenchymal stem cells, 96 h, BM-hMSC, 4 days, non-addition = 100%, read-out: relative value of RLU (number of viable cells)
Procedure: Bone marrow-derived human mesenchymal stem cells (BM-hMSC, manufactured by PromoCell) were precultured by a single layer culture method (2D) using a mesenchymal stem cell proliferation medium (manufactured by PromoCell). In three-dimensional culture method (3D), hMSC was suspended in a medium composition added with deacylated gellan gum, and seeded in a […] flat bottom Ultr-low Attachment surface plate (manufactured by Corning Incorporated, #3474) at 6000 cells/90 μL/well. In the three-dimensional culture method using EZSPHERE (EZSPHERE), hMSC was suspended in a deacylated gellan gum-free medium composition, and seeded in a 96-well EZSPHERE plate (manufactured by AGC TECHNO GLASS CO., LTD., #4860-900) at 2000 cells/90 μL/well. In 2D, hMSC was suspended in a deacylated gellan gum-free medium composition, and seeded in a 96-well flat bottom plate (manufactured by Corning Incorporated, #3585) at 2000 cells/90 μL/well. […] As a control, DMSO was added at a final concentration of 0.1%.

[4] = tested on: human ovarian cancer cell line SKOV3; experiment: Action on SKOV3 cell-2: 3D (deacylated gellan gum) and 2D culture, EGF medium, ATP assay (Experimental Example 3); conditions: for viability at 1 µM / viability at 5 µM / viability at 10 µM / viability at 20 µM: Homo sapiens, SK-OV-3, 96 h, 4 days, compound non-addition = 100%
Procedure: According to the method of patent document 1 (WO 2014/017513), a composition of McCoy's 5a medium (manufactured by Sigma-Aldrich) containing 0.015% (w/v) deacylated gellan gum (KELCOGEL CG-LA, manufactured by Sansho Co., Ltd.) and 15% (v/v) FBS, 30 ng/mL human EGF (manufactured by PEPROTECH) was prepared using FCeM-series Preparation Kit (manufactured by Wako Pure Chemical Industries, Ltd.). In a single layer culture, a non-addition medium composition not containing deacylated gellan gum was prepared. Then, human ovarian cancer cell line SKOV3 (manufactured by DS PHARMA BIO MEDICAL) was suspended in the above-mentioned medium composition added with deacylated gellan gum, and dispensed into the wells of a 384 well flat bottom Ultr-low Attachment surface microplate (manufactured by Corning Incorporated, #3827) at 1000 cells/36 μL/well (three-dimensional culture (3D)). In a single layer culture (2D), human ovarian cancer cell line SKOV3 was suspended in the above-mentioned medium composition not containing deacylated gellan gum, and dispensed into the wells of a 384 well flat bottom microplate (manufactured by Corning Incorporated, #3712) at 400 cells/36 μL per well. After dispensing, the compound to be used in the present invention dissolved in dimethyl sulfoxide (DMSO) was added by 4 μL each at a final concentration of 0, 1, 5, 10, 20 μM, and continuously cultured for 4 days. Each plate was cultured in a standing state in a CO2 incubator (37° C., 5% CO2) for 4 days. An ATP reagent (40 μL) (CellTiter-Glo (registered trade mark) Luminescent Cell Viability Assay, manufactured by Promega) was added to the culture medium on day 4, and the mixture was stirred by a plateshaker (manufactured by AS ONE Corporation, Micro plate mixer NS-P) at room temperature for 15 min. The luminescence intensity (RLU value) was measured by EnSpire (manufactured by Perkin Elmer) and the luminescence value of the medium alone was subtracted to measure the number of viable cells.

[5] = three-dimensional cell culture conditions
[6] = read-out: relative value of RLU (number of viable cells), 2D single layer culture
[7] = read-out: relative value of RLU (number of viable cells), 3D culture (deacylated gellan gum)
[8] = single layer culture (2D) of SKOV3 cells
[9] = three-dimensional culture (3D) of SKOV3 cells
[10] = Mus musculus, C3H 10T1/2, 96 h, C3H10T1/2, low attachment U-bottom plate, 1 μM, 4 days, read-out: number of viable cells (RLU), relative value to control (100%)
[11] = low attachment flat bottom plate (deacylated gellan gum-containing medium)

CC/C(=N\NC(=O)C(C)Nc1ccccc1)c1ccc(O)c(C)c1O (centres unmarked) [k-1:B-1]
proliferation activity (in words) [1]: promoted proliferation activity in human umbilical vein endothelial cells
number of viable cells (RLU), relative value to control (100%) ([2]; C3H10T1/2, low attachment U-bottom plate, 1 μM, 4 days): ⊙
number of viable cells (RLU), relative value to control (100%) ([2]; C3H10T1/2, low attachment U-bottom plate, 5 μM, 4 days): ⊙
proliferation activity (in words) [2]: promoted proliferation activity in fibroblast
viability at 1 µM ([3]; 2D): 109%
viability at 5 µM ([3]; 2D): 125%
viability at 10 µM ([3]; 2D): 158%
viability at 20 µM ([3]; 2D): 164%
viability at 1 µM ([3]; 3D (deacylated gellan gum)): 139%
viability at 5 µM ([3]; 3D (deacylated gellan gum)): 298%
viability at 10 µM ([3]; 3D (deacylated gellan gum)): 418%
viability at 20 µM ([3]; 3D (deacylated gellan gum)): 420%
viability at 1 µM ([3]; EZSPHERE plate): 154%
viability at 5 µM ([3]; EZSPHERE plate): 247%
viability at 10 µM ([3]; EZSPHERE plate): 297%
viability at 20 µM ([3]; EZSPHERE plate): 278%
proliferation activity (in words) [3, 5]: promoted proliferation activity of BM-hMSC
proliferation activity (in words) ([3]; two-dimensional cell culture conditions): promoted proliferation activity of hMSC
viability at 1 µM [4, 6]: 95%
viability at 5 µM [4, 6]: 99%
viability at 10 µM [4, 6]: 97%
viability at 20 µM [4, 6]: 74%
viability at 1 µM [4, 7]: 127%
viability at 5 µM [4, 7]: 181%
viability at 10 µM [4, 7]: 177%
viability at 20 µM [4, 7]: 158%
cell proliferation promoting effect (in words) [4, 8]: a favorable cell proliferation promoting effect was not observed
cell proliferation promoting effect (in words) [4, 9]: exhibited cell proliferation promoting effect at a wide concentration range

CC/C(=N\NC(=O)CNc1cccc(O)c1)c1ccc(O)c(C)c1O [k-1:D-1]
proliferation activity (in words) [1]: promoted proliferation activity in human umbilical vein endothelial cells
viability at 1 µM [2, 10]: > 120%
proliferation activity (in words) [2]: promoted proliferation activity in fibroblast
viability at 1 µM ([3]; 2D): 111%
viability at 5 µM ([3]; 2D): 125%
viability at 10 µM ([3]; 2D): 112%
viability at 20 µM ([3]; 2D): 92%
viability at 1 µM ([3]; 3D (deacylated gellan gum)): 170%
viability at 5 µM ([3]; 3D (deacylated gellan gum)): 640%
viability at 10 µM ([3]; 3D (deacylated gellan gum)): 771%
viability at 20 µM ([3]; 3D (deacylated gellan gum)): 688%
viability at 1 µM ([3]; EZSPHERE plate): 169%
viability at 5 µM ([3]; EZSPHERE plate): 310%
viability at 10 µM ([3]; EZSPHERE plate): 339%
viability at 20 µM ([3]; EZSPHERE plate): 275%
proliferation activity (in words) [3, 5]: promoted proliferation activity of BM-hMSC
viability at 1 µM [4, 6]: 95%
viability at 5 µM [4, 6]: 102%
viability at 10 µM [4, 6]: 98%
viability at 20 µM [4, 6]: 83%
viability at 1 µM [4, 7]: 140%
viability at 5 µM [4, 7]: 174%
viability at 10 µM [4, 7]: 168%
viability at 20 µM [4, 7]: 136%
cell proliferation promoting effect (in words) [4, 8]: a favorable cell proliferation promoting effect was not observed
cell proliferation promoting effect (in words) [4, 9]: exhibited cell proliferation promoting effect at a wide concentration range

CCC(=NNC(=O)C(CC)Nc1ccccc1)c1ccc(O)c(C)c1O (centres unmarked) [k-1:H-7]
proliferation activity (in words) [1]: promoted proliferation activity in human umbilical vein endothelial cells

CC/C(=N\NC(=O)NCc1ccccc1)c1ccc(O)c(C)c1O [k-1:I-1]
viability at 5 µM ([1]; low attachment U-bottom plate): 327%
viability at 10 µM ([1]; low attachment U-bottom plate): 304%
viability at 5 µM [1, 11]: 209%
viability at 10 µM [1, 11]: 268%
proliferation activity (in words) [1]: promoted proliferation activity in human umbilical vein endothelial cells
viability at 1 µM [2, 10]: > 120%
viability at 5 µM ([2]; Mus musculus, C3H 10T1/2, 96 h, C3H10T1/2, low attachment U-bottom plate, 5 μM, 4 days, read-out: number of viable cells (RLU), relative value to control (100%)): > 120%
proliferation activity (in words) [2]: promoted proliferation activity in fibroblast
viability at 1 µM ([3]; 2D): 107%
viability at 5 µM ([3]; 2D): 98%
viability at 10 µM ([3]; 2D): 104%
viability at 20 µM ([3]; 2D): 107%
viability at 1 µM ([3]; 3D (deacylated gellan gum)): 100%
viability at 5 µM ([3]; 3D (deacylated gellan gum)): 123%
viability at 10 µM ([3]; 3D (deacylated gellan gum)): 150%
viability at 20 µM ([3]; 3D (deacylated gellan gum)): 177%
viability at 1 µM ([3]; EZSPHERE plate): 101%
viability at 5 µM ([3]; EZSPHERE plate): 120%
viability at 10 µM ([3]; EZSPHERE plate): 144%
viability at 20 µM ([3]; EZSPHERE plate): 163%
proliferation activity (in words) [3, 5]: promoted proliferation activity of BM-hMSC
viability at 1 µM [4, 6]: 99%
viability at 5 µM [4, 6]: 98%
viability at 10 µM [4, 6]: 94%
viability at 20 µM [4, 6]: 92%
viability at 1 µM [4, 7]: 106%
viability at 5 µM [4, 7]: 111%
viability at 10 µM [4, 7]: 123%
viability at 20 µM [4, 7]: 141%
cell proliferation promoting effect (in words) [4, 8]: a favorable cell proliferation promoting effect was not observed
cell proliferation promoting effect (in words) [4, 9]: exhibited cell proliferation promoting effect at a wide concentration range
